Results taken from patent EP4342890A1, “PLATFORM AND SCAFFOLD FOR FAP TARGETING AGENTS” (Erasmus University Rotterdam Medical Center, priority 2022, dated 2024).

Tests used:
[1] = target: T1, murine FAP (Mus musculus, UniProt P97321); test: In vitro inhibition assay on mouse FAP (Z-GP-AMC substrate); assay type: biochemical; conditions: enzymatic assay; 20 µM Z-GP-AMC, 20 nM FAP; unit inferred
T1 sequence (P97321 1-761): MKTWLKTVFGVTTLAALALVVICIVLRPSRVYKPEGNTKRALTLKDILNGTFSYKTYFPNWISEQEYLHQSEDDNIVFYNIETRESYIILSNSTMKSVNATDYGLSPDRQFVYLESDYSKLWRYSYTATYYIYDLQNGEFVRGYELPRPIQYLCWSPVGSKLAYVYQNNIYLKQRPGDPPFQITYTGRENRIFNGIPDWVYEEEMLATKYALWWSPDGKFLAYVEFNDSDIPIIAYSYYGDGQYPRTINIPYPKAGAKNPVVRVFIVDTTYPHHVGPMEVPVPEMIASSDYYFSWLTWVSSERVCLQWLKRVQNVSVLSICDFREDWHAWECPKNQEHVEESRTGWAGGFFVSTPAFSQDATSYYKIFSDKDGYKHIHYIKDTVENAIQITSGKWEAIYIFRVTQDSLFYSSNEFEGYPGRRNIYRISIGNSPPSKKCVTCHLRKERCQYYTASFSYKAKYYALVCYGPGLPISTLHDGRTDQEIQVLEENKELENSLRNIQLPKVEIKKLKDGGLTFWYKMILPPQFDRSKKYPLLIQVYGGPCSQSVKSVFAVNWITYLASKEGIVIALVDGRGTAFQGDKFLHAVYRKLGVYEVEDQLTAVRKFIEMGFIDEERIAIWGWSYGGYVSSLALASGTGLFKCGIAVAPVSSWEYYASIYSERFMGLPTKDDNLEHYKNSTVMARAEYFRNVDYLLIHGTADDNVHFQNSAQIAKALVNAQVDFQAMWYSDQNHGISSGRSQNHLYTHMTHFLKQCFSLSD
Procedure: (§1) Enzymatic activity of human FAP (hFAP) and mouse FAP (mFAP) on the Z-GP-AMC substrate was measured at room temperature on a Hidex microplate reader by monitoring the fluorescence at an excitation wavelength of 360 nm and an emission wavelength of 465 nm. The reaction mixture contained 20 µM substrate, 20 nM FAP, assay buffer (50 mM Tris, 100 mM NaCl, 1 mM EDTA, pH 7.4) and tested compound (serial dilution from 10^-6 to 10^-12) in a total volume of 50 µL.

[2] = target: T2, FAP (Homo sapiens, UniProt Q12884); test: Competitive binding assay against [111In]In-FAPI-46 in HT-1080.hFAP cells; set-up: expressed in transfected cells; host or cells: HT-1080.hFAP cells; conditions: competition with [111In]In-FAPI-46 in HT-1080.hFAP cells, 37 °C, 1 h; unit inferred
T2 sequence (Q12884 1-760): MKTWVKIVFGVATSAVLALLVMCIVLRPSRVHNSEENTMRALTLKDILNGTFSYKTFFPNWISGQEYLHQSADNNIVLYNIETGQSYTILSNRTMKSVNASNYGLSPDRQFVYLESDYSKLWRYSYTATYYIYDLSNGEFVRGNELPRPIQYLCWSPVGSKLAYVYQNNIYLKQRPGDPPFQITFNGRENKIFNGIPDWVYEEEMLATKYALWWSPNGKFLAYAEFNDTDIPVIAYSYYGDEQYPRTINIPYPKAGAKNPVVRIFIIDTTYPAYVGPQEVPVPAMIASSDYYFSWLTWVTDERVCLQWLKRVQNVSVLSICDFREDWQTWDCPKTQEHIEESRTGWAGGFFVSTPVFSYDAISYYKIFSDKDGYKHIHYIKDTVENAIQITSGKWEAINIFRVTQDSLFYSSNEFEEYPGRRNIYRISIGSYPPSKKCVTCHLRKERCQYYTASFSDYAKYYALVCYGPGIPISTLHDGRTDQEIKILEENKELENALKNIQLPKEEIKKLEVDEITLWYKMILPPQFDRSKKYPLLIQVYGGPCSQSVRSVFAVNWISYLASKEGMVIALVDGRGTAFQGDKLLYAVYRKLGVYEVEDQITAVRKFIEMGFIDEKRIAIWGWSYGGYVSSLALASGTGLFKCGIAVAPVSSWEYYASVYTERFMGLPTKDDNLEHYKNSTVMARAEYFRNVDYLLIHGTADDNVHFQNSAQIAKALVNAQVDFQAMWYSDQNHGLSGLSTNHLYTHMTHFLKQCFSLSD
Procedure: The U-87 MG glioblastoma was cultured at 37 °C and 5% CO2 in Dulbecco's Modified Eagle Medium (DMEM) supplemented with 10 % (v/v) fetal calf serum. HT-1080.hFAP cells were kept in culture in DMEM medium supplemented with fetal bovine serum (10%, FBS) and antibiotic antimycotic (1%, AA) at 37 °C and 5% CO2. For passaging, cells were detached using Trypsin-EDTA 0.05% when reaching 90% confluence and re-seeded at a dilution of 1:4.
Competition binding experiments were conducted by incubation of the [^111In]In-FAPI-46 radioligand with increasing concentrations of eFAP compound in HT-1080.hFAP cells at 37 °C for 1 h. Cells were then washed three times with binding buffer and lysed. The cell-associated radioactivity was measured in a γ-counter. The IC50 values were calculated by fitting the data by non-linear regression using GraphPad Prism.

[3] = target: T2, FAP; test: In vitro inhibition assay on human FAP (Z-GP-AMC substrate); assay type: biochemical; conditions: enzymatic assay; 20 µM Z-GP-AMC, 20 nM FAP; unit inferred
Procedure: as §1

CN(CCCN1CCN(C(=O)CN2CCN(CC(=O)O)CCN(CC(=O)O)CCN(CC(=O)O)CC2)CC1)c1ccc2nccc(C(=O)NCC(=O)N3CC(F)(F)C[C@H]3C#N)c2c1 [FAPI-46, reference compound]
IC50 [1]: 15 ± 2 nM | IC50 [2]: 1.6 ± 0.3 nM | IC50 [3]: 2.7 ± 1.7 nM
